ChEMBL document CHEMBL5620374, “Synthesis and bioevaluation of novel stilbene-based derivatives as tubulin/HDAC dual-target inhibitors with potent antitumor activities in vitro and in vivo” (Eur J Med Chem, 2023)

What was measured:
Histone deacetylase 3 = Histone deacetylase 3 (Homo sapiens, UniProt O15379); assay: Inhibition of HDAC3 derived from human HeLa cell extract using Ac-Leu-Gly-Lys (Ac)-AMC as substrate by fluorescence based assay; format: cell-free
B16-F10 = assay: Antiproliferative activity against mouse B16-F10 cells incubated for 72 hrs by MTT assay; format: functional, cell-based; settings: B16-F10, 72 h
A549 = assay: cells; settings: Homo sapiens, A549, 72 h
Description: Antiproliferative activity against human A549 cells incubated for 72 hrs by MTT assay

Histone deacetylase 1 = Histone deacetylase 1 (Homo sapiens, UniProt Q13547); assay: Inhibition of HDAC1 derived from human HeLa cell extract using Ac-Leu-Gly-Lys (Ac)-AMC as substrate by fluorescence based assay; format: cell-free
Sequence of Histone deacetylase 1 (Q13547 whole entry): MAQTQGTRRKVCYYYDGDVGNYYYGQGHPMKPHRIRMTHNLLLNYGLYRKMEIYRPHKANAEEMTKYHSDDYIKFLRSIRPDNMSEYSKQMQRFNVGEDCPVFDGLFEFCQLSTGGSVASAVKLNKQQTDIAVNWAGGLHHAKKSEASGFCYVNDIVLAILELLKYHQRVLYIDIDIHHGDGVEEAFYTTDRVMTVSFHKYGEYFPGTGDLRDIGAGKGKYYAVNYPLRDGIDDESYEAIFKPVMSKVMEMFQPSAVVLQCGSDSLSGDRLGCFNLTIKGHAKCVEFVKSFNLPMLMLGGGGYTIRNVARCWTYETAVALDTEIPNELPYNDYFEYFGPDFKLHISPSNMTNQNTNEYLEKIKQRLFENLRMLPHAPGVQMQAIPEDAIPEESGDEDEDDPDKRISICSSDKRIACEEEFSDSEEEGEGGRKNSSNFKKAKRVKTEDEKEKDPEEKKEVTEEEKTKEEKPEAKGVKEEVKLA

A2780 = assay: cells; settings: Homo sapiens, A2780, 72 h
Description: Antiproliferative activity against human A2780 cells incubated for 72 hrs by MTT assay

[1] = Antiproliferative activity against human HFL1 cells incubated for 72 hrs by MTT assay; format: toxicity, cell-based
Histone deacetylase 7 = biological target: T1, Histone deacetylase 7 (Homo sapiens, UniProt Q8WUI4); assay: Inhibition of HDAC7 derived from human HeLa cell extract using Ac-Leu-Gly-Lys (Ac)-AMC as substrate by fluorescence based assay; format: cell-free
T1 sequence (Q8WUI4 whole entry): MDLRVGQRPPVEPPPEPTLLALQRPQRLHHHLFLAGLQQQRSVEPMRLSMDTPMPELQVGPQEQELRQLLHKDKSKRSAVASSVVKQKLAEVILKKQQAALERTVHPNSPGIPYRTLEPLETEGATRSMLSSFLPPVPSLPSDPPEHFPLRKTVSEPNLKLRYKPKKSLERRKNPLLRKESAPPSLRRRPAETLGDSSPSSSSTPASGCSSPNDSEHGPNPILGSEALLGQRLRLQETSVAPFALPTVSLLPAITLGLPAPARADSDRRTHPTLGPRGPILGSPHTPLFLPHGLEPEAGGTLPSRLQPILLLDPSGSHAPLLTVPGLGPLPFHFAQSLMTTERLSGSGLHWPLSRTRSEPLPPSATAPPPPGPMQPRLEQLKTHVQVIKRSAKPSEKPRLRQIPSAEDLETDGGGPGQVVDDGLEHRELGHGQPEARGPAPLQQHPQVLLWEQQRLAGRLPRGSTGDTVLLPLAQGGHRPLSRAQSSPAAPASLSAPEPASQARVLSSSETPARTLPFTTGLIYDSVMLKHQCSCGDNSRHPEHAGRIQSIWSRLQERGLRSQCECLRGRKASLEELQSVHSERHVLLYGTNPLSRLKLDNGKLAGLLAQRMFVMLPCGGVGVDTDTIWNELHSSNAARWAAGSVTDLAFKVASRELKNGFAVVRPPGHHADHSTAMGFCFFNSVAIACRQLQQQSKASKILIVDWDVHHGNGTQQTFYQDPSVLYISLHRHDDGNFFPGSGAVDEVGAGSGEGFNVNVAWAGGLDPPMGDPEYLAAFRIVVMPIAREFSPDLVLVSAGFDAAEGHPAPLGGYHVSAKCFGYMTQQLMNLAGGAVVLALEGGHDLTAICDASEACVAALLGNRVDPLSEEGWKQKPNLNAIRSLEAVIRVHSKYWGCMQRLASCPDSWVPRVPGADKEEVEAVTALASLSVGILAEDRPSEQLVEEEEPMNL

[2] = biological target: T2, Protein deacetylase HDAC6 (Homo sapiens, UniProt Q9UBN7); assay: Inhibition of HDAC6 derived from human HeLa cell extract using Ac-Leu-Gly-Lys (Ac)-AMC as substrate by fluorescence based assay; format: cell-free
T2 sequence (Q9UBN7 whole entry): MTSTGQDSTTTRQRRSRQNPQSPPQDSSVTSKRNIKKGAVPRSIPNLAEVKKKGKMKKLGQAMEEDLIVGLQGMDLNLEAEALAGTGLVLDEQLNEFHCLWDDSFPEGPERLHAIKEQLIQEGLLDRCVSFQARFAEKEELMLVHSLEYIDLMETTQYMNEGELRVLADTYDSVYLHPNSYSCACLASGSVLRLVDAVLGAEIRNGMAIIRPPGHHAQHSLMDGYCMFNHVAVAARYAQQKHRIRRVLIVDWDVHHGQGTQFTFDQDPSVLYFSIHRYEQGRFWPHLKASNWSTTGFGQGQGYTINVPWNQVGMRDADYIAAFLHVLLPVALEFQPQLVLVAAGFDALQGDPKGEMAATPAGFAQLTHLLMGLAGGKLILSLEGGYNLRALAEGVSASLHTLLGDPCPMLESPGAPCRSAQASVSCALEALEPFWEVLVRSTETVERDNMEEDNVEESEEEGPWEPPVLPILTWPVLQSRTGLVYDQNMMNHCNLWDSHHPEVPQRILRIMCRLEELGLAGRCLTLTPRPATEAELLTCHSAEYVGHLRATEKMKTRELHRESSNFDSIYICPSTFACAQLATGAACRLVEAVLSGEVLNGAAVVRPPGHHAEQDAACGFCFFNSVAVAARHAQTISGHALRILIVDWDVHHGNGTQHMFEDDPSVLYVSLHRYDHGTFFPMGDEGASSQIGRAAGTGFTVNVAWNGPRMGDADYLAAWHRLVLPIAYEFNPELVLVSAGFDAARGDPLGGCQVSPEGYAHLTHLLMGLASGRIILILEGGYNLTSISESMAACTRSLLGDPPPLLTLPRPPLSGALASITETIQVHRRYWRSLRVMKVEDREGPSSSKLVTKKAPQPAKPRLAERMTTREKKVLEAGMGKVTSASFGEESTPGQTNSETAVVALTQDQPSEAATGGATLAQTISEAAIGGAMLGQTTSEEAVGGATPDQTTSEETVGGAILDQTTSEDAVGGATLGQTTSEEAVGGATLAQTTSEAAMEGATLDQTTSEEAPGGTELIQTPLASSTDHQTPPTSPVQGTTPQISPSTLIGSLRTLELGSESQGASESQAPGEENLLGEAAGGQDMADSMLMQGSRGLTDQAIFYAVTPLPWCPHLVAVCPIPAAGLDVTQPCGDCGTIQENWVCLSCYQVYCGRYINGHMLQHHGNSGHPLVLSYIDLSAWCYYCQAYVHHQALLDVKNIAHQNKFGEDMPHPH

MDA-MB-231 = assay: cells; settings: Homo sapiens, MDA-MB-231, 72 h
Description: Antiproliferative activity against human MDA-MB-231 cells incubated for 72 hrs by MTT assay

MCF7 = assay: cells; settings: Homo sapiens, MCF7, 72 h
Description: Antiproliferative activity against human MCF7 cells incubated for 72 hrs by MTT assay

K562 = assay: Antiproliferative activity against human K562 cells incubated for 72 hrs by MTT assay; format: functional, cell-based; settings: K562, 72 h
Histone deacetylase 2 = Histone deacetylase 2 (Homo sapiens, UniProt Q92769); assay: Inhibition of HDAC2 derived from human HeLa cell extract using Ac-Leu-Gly-Lys (Ac)-AMC as substrate by fluorescence based assay
Sequence of Histone deacetylase 2 (Q92769 whole entry): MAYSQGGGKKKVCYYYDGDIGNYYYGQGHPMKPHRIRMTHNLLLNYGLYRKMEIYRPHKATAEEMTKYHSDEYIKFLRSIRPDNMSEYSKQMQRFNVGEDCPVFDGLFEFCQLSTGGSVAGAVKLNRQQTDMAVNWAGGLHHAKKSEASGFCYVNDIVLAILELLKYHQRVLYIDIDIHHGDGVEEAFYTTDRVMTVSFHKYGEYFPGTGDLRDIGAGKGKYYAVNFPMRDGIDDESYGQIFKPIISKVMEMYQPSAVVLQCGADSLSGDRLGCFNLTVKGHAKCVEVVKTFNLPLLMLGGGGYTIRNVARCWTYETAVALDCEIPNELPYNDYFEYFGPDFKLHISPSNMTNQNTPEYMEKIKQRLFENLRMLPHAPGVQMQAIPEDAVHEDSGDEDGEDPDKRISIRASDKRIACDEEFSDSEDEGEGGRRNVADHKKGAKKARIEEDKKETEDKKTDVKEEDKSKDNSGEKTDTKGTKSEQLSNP

H22 = assay: Antitumor activity against mouse H22 cells allografted in ICR mouse assessed as tumor growth inhibition at 20 mg/kg, iv qd for 17 days consecutively relative to control; format: functional; settings: time 17 day, read-out: TGI

Sequence of Histone deacetylase 3 (O15379 whole entry): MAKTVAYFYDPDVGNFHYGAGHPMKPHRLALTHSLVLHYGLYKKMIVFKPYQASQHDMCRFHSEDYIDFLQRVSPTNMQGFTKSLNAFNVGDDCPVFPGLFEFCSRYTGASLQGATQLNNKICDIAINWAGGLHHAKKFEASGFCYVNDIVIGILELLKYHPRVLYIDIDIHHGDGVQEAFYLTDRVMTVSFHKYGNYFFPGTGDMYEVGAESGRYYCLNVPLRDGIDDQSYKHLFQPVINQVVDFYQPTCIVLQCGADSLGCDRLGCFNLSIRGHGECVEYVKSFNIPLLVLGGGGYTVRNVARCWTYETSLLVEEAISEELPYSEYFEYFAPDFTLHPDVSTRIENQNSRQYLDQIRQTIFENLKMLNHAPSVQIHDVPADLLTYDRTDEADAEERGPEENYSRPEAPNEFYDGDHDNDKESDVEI

SMILES | IC50 (Histone deacetylase 3) | IC50 (B16-F10) | IC50 (A549) | IC50 (Histone deacetylase 1) | IC50 (A2780) | IC50 at 72 h [1] | IC50 (Histone deacetylase 7) | IC50 [2] | IC50 (MDA-MB-231) | IC50 (MCF7) | IC50 (K562) | IC50 (Histone deacetylase 2) | inhibition in vivo at 20 mg/kg (H22)
C=C(c1ccc(OC)c(OC(C)C(=O)NO)c1)c1cc(C)nc2ccccc12 (stereo not drawn) | 8910 nM | 30 nM | 15 nM | 1470 nM | 14 nM | 95 nM | > 10000 nM | 4680 nM | 28 nM | 22 nM | 7 nM | 2320 nM | –
C=C(c1ccc(OC)c(O)c1)c1cc(C)nc2ccccc12 | – | – | – | – | – | – | – | – | – | – | – | – | 64.1%
